# Measurements: the NIST ThermoML archive (doi:10.1016/j.jct.2015.07.028)
# ± gives the expanded uncertainty stated by the source.
# What was measured:
# [1] = molar enthalpy of vaporization or sublimation; settings: 305.12 K; Liquid; Static calorimetry
# [2] = Molar enthalpy of transition or fusion; settings: Adiabatic calorimetry
# [3] = for molar entropy: 101.33 kPa, Small (less than 1 g) adiabatic calorimetry; for vapor or sublimation pressure: Closed cell (Static) method; for Triple point temperature: Adiabatic calorimetry
smiles,measurement,setting,value
C=CC(C)(C)O [2-methyl-3-buten-2-ol],molar enthalpy,[1],46.9 ± 1.6 kJ/mol
same,Molar enthalpy of transition or fusion,[2]; Crystal 1,5.199 ± 0.047 kJ/mol
same,Molar enthalpy of transition or fusion,[2]; Crystal 2,0.17 ± 0.046 kJ/mol
same,molar entropy,"[3]; 5 K, Crystal 2",0.1073 ± 0.025 J/K/mol
same,molar entropy,"[3]; 10 K, Crystal 2",0.901 ± 0.045 J/K/mol
same,molar entropy,"[3]; 15 K, Crystal 2",2.701 ± 0.082 J/K/mol
same,molar entropy,"[3]; 20 K, Crystal 2",5.385 ± 0.13 J/K/mol
same,molar entropy,"[3]; 25 K, Crystal 2",8.631 ± 0.16 J/K/mol
same,molar entropy,"[3]; 30 K, Crystal 2",12.21 ± 0.22 J/K/mol
same,molar entropy,"[3]; 35 K, Crystal 2",15.96 ± 0.25 J/K/mol
same,molar entropy,"[3]; 40 K, Crystal 2",19.77 ± 0.28 J/K/mol
same,molar entropy,"[3]; 45 K, Crystal 2",23.58 ± 0.31 J/K/mol
same,molar entropy,"[3]; 50 K, Crystal 2",27.38 ± 0.34 J/K/mol
same,molar entropy,"[3]; 60 K, Crystal 2",34.85 ± 0.4 J/K/mol
same,molar entropy,"[3]; 70 K, Crystal 2",42.16 ± 0.46 J/K/mol
same,molar entropy,"[3]; 80 K, Crystal 2",49.35 ± 0.51 J/K/mol
same,molar entropy,"[3]; 88.1 K, Crystal 1",57.03 ± 0.58 J/K/mol
same,molar entropy,"[3]; 88.1 K, Crystal 2",55.1 ± 0.56 J/K/mol
same,molar entropy,"[3]; 90 K, Crystal 1",58.35 ± 0.61 J/K/mol
same,molar entropy,"[3]; 100 K, Crystal 1",65.19 ± 0.66 J/K/mol
same,molar entropy,"[3]; 110 K, Crystal 1",71.91 ± 0.72 J/K/mol
same,molar entropy,"[3]; 120 K, Crystal 1",78.52 ± 0.77 J/K/mol
same,molar entropy,"[3]; 130 K, Crystal 1",85.1 ± 0.81 J/K/mol
same,molar entropy,"[3]; 140 K, Crystal 1",91.7 ± 0.86 J/K/mol
same,molar entropy,"[3]; 150 K, Crystal 1",98.37 ± 0.9 J/K/mol
same,molar entropy,"[3]; 160 K, Crystal 1",105.2 ± 1 J/K/mol
same,molar entropy,"[3]; 170 K, Crystal 1",112.2 ± 1 J/K/mol
same,molar entropy,"[3]; 180 K, Crystal 1",119.4 ± 1 J/K/mol
same,molar entropy,"[3]; 190 K, Crystal 1",126.8 ± 1.1 J/K/mol
same,molar entropy,"[3]; 200 K, Crystal 1",134.3 ± 1.2 J/K/mol
same,molar entropy,"[3]; 210 K, Crystal 1",141.9 ± 1.2 J/K/mol
same,molar entropy,"[3]; 220 K, Crystal 1",149.7 ± 1.2 J/K/mol
same,molar entropy,"[3]; 230 K, Crystal 1",157.5 ± 1.4 J/K/mol
same,molar entropy,"[3]; 240 K, Crystal 1",165.4 ± 1.4 J/K/mol
same,molar entropy,"[3]; 245.03 K, Crystal 1",169.4 ± 1.4 J/K/mol
same,molar entropy,"[3]; 245.03 K, Liquid",190.6 ± 1.6 J/K/mol
same,molar entropy,"[3]; 250 K, Liquid",194.6 ± 1.6 J/K/mol
same,molar entropy,"[3]; 260 K, Liquid",202.4 ± 1.7 J/K/mol
same,molar entropy,"[3]; 270 K, Liquid",210.3 ± 1.7 J/K/mol
same,molar entropy,"[3]; 273.15 K, Liquid",212.8 ± 1.8 J/K/mol
same,vapor or sublimation pressure,"[3]; 279.12 K, Liquid",0.7477 ± 0.012 kPa
same,vapor or sublimation pressure,"[3]; 279.82 K, Liquid",0.7934 ± 0.012 kPa
same,molar entropy,"[3]; 280 K, Liquid",218.2 ± 1.8 J/K/mol
same,vapor or sublimation pressure,"[3]; 280.58 K, Liquid",0.8399 ± 0.012 kPa
same,vapor or sublimation pressure,"[3]; 280.94 K, Liquid",0.8608 ± 0.013 kPa
same,vapor or sublimation pressure,"[3]; 281.64 K, Liquid",0.9104 ± 0.014 kPa
same,vapor or sublimation pressure,"[3]; 283.31 K, Liquid",1.026 ± 0.015 kPa
same,vapor or sublimation pressure,"[3]; 283.94 K, Liquid",1.075 ± 0.016 kPa
same,vapor or sublimation pressure,"[3]; 285.82 K, Liquid",1.23 ± 0.02 kPa
same,vapor or sublimation pressure,"[3]; 286.31 K, Liquid",1.271 ± 0.021 kPa
same,vapor or sublimation pressure,"[3]; 288.03 K, Liquid",1.447 ± 0.021 kPa
same,vapor or sublimation pressure,"[3]; 288.63 K, Liquid",1.504 ± 0.021 kPa
same,molar entropy,"[3]; 290 K, Liquid",226.1 ± 1.8 J/K/mol
same,vapor or sublimation pressure,"[3]; 291.06 K, Liquid",1.787 ± 0.024 kPa
same,vapor or sublimation pressure,"[3]; 291.09 K, Liquid",1.78 ± 0.024 kPa
same,vapor or sublimation pressure,"[3]; 293.17 K, Liquid",2.061 ± 0.026 kPa
same,vapor or sublimation pressure,"[3]; 293.35 K, Liquid",2.084 ± 0.026 kPa
same,vapor or sublimation pressure,"[3]; 295.88 K, Liquid",2.467 ± 0.032 kPa
same,vapor or sublimation pressure,"[3]; 295.92 K, Liquid",2.466 ± 0.032 kPa
same,vapor or sublimation pressure,"[3]; 298.02 K, Liquid",2.863 ± 0.036 kPa
same,molar entropy,"[3]; 298.15 K, Liquid",232.6 ± 1.9 J/K/mol
same,vapor or sublimation pressure,"[3]; 298.84 K, Liquid",2.995 ± 0.038 kPa
same,molar entropy,"[3]; 300 K, Liquid",234.1 ± 1.9 J/K/mol
same,vapor or sublimation pressure,"[3]; 301.36 K, Liquid",3.534 ± 0.044 kPa
same,vapor or sublimation pressure,"[3]; 301.37 K, Liquid",3.532 ± 0.044 kPa
same,vapor or sublimation pressure,"[3]; 303.03 K, Liquid",3.938 ± 0.045 kPa
same,vapor or sublimation pressure,"[3]; 303.4 K, Liquid",4.006 ± 0.046 kPa
same,vapor or sublimation pressure,"[3]; 306.13 K, Liquid",4.784 ± 0.057 kPa
same,vapor or sublimation pressure,"[3]; 306.16 K, Liquid",4.776 ± 0.057 kPa
same,vapor or sublimation pressure,"[3]; 307.86 K, Liquid",5.284 ± 0.067 kPa
same,vapor or sublimation pressure,"[3]; 308.18 K, Liquid",5.405 ± 0.068 kPa
same,molar entropy,"[3]; 310 K, Liquid",242 ± 1.9 J/K/mol
same,vapor or sublimation pressure,"[3]; 311.01 K, Liquid",6.393 ± 0.075 kPa
same,vapor or sublimation pressure,"[3]; 311.02 K, Liquid",6.405 ± 0.075 kPa
same,vapor or sublimation pressure,"[3]; 312.7 K, Liquid",7.049 ± 0.082 kPa
same,vapor or sublimation pressure,"[3]; 313.18 K, Liquid",7.252 ± 0.086 kPa
same,vapor or sublimation pressure,"[3]; 313.25 K, Liquid",7.27 ± 0.085 kPa
same,vapor or sublimation pressure,"[3]; 315.8 K, Liquid",8.467 ± 0.087 kPa
same,vapor or sublimation pressure,"[3]; 315.81 K, Liquid",8.457 ± 0.088 kPa
same,vapor or sublimation pressure,"[3]; 315.98 K, Liquid",8.484 ± 0.088 kPa
same,vapor or sublimation pressure,"[3]; 318.16 K, Liquid",9.605 ± 0.11 kPa
same,molar entropy,"[3]; 320 K, Liquid",250 ± 2 J/K/mol
same,vapor or sublimation pressure,"[3]; 320.59 K, Liquid",11.11 ± 0.11 kPa
same,vapor or sublimation pressure,"[3]; 320.62 K, Liquid",11.02 ± 0.12 kPa
same,vapor or sublimation pressure,"[3]; 320.82 K, Liquid",11.12 ± 0.12 kPa
same,vapor or sublimation pressure,"[3]; 322.89 K, Liquid",12.51 ± 0.15 kPa
same,vapor or sublimation pressure,"[3]; 322.94 K, Liquid",12.48 ± 0.14 kPa
same,vapor or sublimation pressure,"[3]; 325.36 K, Liquid",14.31 ± 0.15 kPa
same,vapor or sublimation pressure,"[3]; 325.39 K, Liquid",14.24 ± 0.16 kPa
same,vapor or sublimation pressure,"[3]; 325.66 K, Liquid",14.41 ± 0.16 kPa
same,vapor or sublimation pressure,"[3]; 328.07 K, Liquid",16.34 ± 0.18 kPa
same,molar entropy,"[3]; 330 K, Liquid",257.9 ± 2.1 J/K/mol
same,molar entropy,"[3]; 340 K, Liquid",265.7 ± 2.1 J/K/mol
same,molar entropy,"[3]; 350 K, Liquid",273.5 ± 2.1 J/K/mol
same,molar entropy,"[3]; 360 K, Liquid",281.1 ± 2.3 J/K/mol
same,molar entropy,"[3]; 370 K, Liquid",288.5 ± 2.3 J/K/mol
same,Triple point temperature,[3]; Crystal 1,245.03 ± 0.05 K
same,Triple point temperature,[3]; Crystal 2,88.1 ± 0.3 K
